Data reported in patent US12692529B2, “Quantitative screen for the assessment of inter-individual variability in drug metabolism by the human gut microbiome” (The Trustees of Princeton University, priority 2020, dated 2026).

What was measured:
[1] = test system: ex vivo cultures of donor gut microbiome (BG medium); experiment: MDMQ-Screen 20-donor screen: drug depletion and metabolite production in ex vivo cultures, targeted metabolomics by HPLC-HRMS; settings: for MDM in drug depletion across donors / MDM in metabolite production across donors / MDM (microbiome-derived metabolism) across donors: 20 donors, BG medium, drug 33 μM, 24-hour incubation; for MDM in drug depletion across donors: significant if FDR p<0.01 and depletion >50% vs controls; for MDM in metabolite production across donors: significant if FDR p<0.01 vs all three controls; for Pearson correlation coefficient of drug signal and sum of known metabolite signals (drug depletion vs metabolite production): all donor-drug ex vivo samples, known (quantified) metabolites only
[2] = test system: ex vivo cultures of donor gut microbiome (BG medium); experiment: Untargeted metabolomics with molecular ion networking for new metabolite discovery in the 20-donor screen; format: in vitro ADME, human
Procedure: In order to extract all features in a given sample, a batch recursive feature extraction method for small molecules and peptides within Profinder 8 (Agilent) can be used. The following settings in the method were changed from default: compound ion count threshold set to two ions, alignment retention time tolerance set to 0.2 min, minimum MFE score set to 90, minimum file prevalence set to 2, expected retention time set to ±1 min, retention time contribution to matching score set to 90, expected MS1 mass variation set to 10 ppm, expected retention time tolerance set to 0.2 min, absolute height threshold for EIC integration set to 2500 counts, and final absolute height threshold set to 5000. The resulting feature abundances were then analyzed in MATLAB. Any sample whose internal standard AUC is less than 10^6 was removed. Hypothesis testing was then performed using similar statistical methods as for metabolite production in the targeted metabolomics, except that the multiple hypothesis correction of Storey (Storey, 2002) was used in place of the Benjamini-Hochberg method and require a fold-change cut-off of two relative to all controls. […] All ions already quantified in the screen and all features that are statistically significant for more than one drug are removed. […]

Structure (SMILES) | MDM in drug depletion across donors [1] | MDM in metabolite production across donors [1] | other results
CC[C@H](C)C(=O)O[C@H]1C[C@@H](C)C=C2C=C[C@H](C)[C@H](CC[C@@H]3C[C@@H](O)CC(=O)O3)[C@H]21 [lovastatin] | variable | variable | –
C#C[C@]1(O)CC[C@H]2[C@@H]3CCC4=CC(=O)CC[C@@H]4[C@H]3CC[C@@]21CC [levonorgestrel] | variable | – | –
CC(=O)N1CCN(c2ccc(OCC3COC(Cn4ccnc4)(c4ccc(Cl)cc4Cl)O3)cc2)CC1 (stereo not drawn) [ketoconazole] | – | – | MDM (microbiome-derived metabolism) across donors [1]: consistently negative
COC(=O)C1=C(C)NC(C)=C(C(=O)OCCN(C)Cc2ccccc2)C1c1cccc([N+](=O)[O-])c1 (stereo not drawn) [nicardipine] | – | – | number of additional metabolites detected by the untargeted metabolomics pipeline [2]: 11; Pearson correlation coefficient of drug depletion and metabolite production after inclusion of metabolites discovered by untargeted metabolomics ([1]; after inclusion of 11 additional metabolites, FDR corrected p=0.0102): −0.6; Pearson correlation coefficient of drug signal and sum of known metabolite signals (drug depletion vs metabolite production) [1]: −0.22
COc1c(C)c2c(c(O)c1C/C=C(\C)CCC(=O)OCCN1CCOCC1)C(=O)OC2 [mycophenolate mofetil] | variable | variable | –
O=C(CCCCCCC(=O)Nc1ccccc1)NO [vorinostat] | variable | – | Pearson correlation coefficient of drug signal and sum of known metabolite signals (drug depletion vs metabolite production) [1]: −0.91
CC(=O)S[C@@H]1CC2=CC(=O)CC[C@]2(C)[C@H]2CC[C@@]3(C)[C@@H](CC[C@@]34CCC(=O)O4)[C@H]12 [spironolactone] | consistently positive | variable | –
CC1=C(CC(=O)O)c2cc(F)ccc2/C1=C\c1ccc([S+](C)[O-])cc1 (stereo not drawn) [sulindac] | variable | variable | –
O=C1CN=C(c2ccccc2Cl)c2cc([N+](=O)[O-])ccc2N1 [clonazepam] | consistently positive | consistently positive | –
CCCCC(C)(O)C/C=C/[C@H]1[C@H](O)CC(=O)[C@@H]1CCCCCCC(=O)OC (mixture of isomers) [misoprostol] | consistently positive | – | –
Cc1ccc(C(=O)c2cc(O)c(O)c([N+](=O)[O-])c2)cc1 [tolcapone] | – | consistently positive | –
Cc1nc2n(c(=O)c1CCN1CCC(c3noc4cc(F)ccc34)CC1)CCCC2 [risperidone] | consistently positive | – | –
Cc1cccc(Nc2ccncc2S(=O)(=O)NC(=O)NC(C)C)c1 [torsemide] | – | – | MDM (microbiome-derived metabolism) across donors [1]: consistently negative
CCCN(CCC)CCc1cccc2c1CC(=O)N2 [ropinirole] | – | – | MDM (microbiome-derived metabolism) across donors [1]: consistently negative
CC(C)/N=c1\cc2n(-c3ccc(Cl)cc3)c3ccccc3nc-2cc1Nc1ccc(Cl)cc1 [clofazimine] | variable | variable | –
CCCCCOC(=O)Nc1nc(=O)n([C@@H]2O[C@H](C)[C@@H](O)[C@H]2O)cc1F [capecitabine] | variable | variable | –
C[C@]12CCC(=O)C=C1CC[C@@H]1[C@@H]2[C@@H](O)C[C@@]2(C)[C@H]1CC[C@]2(O)C(=O)CO [hydrocortisone] | variable | – | –
